Results on one compound are retold here after ChEMBL document CHEMBL1150574, “3-Acetoxyspathulenol, a new aromadendrane-type natural product from the soft Coral Parerythropodium fulvum” (J Nat Prod, 2001).

Calls of active or inactive are those of the source. The rule behind the calls is not given here.

The subject of data set [1] is Human immunodeficiency virus. Description: Inhibition of HIV reverse transcriptase.
Data set [2] deals with Artemia. Description: Toxicity against brine shrimp. It is filed as organism-based. As to conditions: in vivo.
The target of data set [3] is Tyrosine-protein kinase Lck (Homo sapiens) (UniProt P06239). Kind of data set: Inhibition of p56 LCK.
Data set [4] has as its system Mycotypha microspora. Description: Antimicrobial activity against Mycotypha microspora. It is filed as functional, organism-based.
Data set [5] has as its system [Chlorella] fusca. Kind of data set: Antimicrobial activity against Chlorella fusca. It is filed as functional, organism-based. Particulars: Scenedesmus fuscus.
Data set [6] deals with Caenorhabditis elegans. Kind of data set: Nematicide against Caenorhabditis elegans. In kind it is functional, organism-based.
The subject of data set [7] is Aspergillus pseudoglaucus. Kind of data set: Antimicrobial activity against Eurotium repens. It is filed as functional, organism-based.
Data set [8] relates to Microbotryum violaceum. Description: Antimicrobial activity against Microbotryum violaceum. It is filed as functional, organism-based.
The test system of data set [9] is Escherichia coli. Description: Antimicrobial activity against Escherichia coli. It is filed as functional, organism-based.
For data set [10], the system named is Priestia megaterium. Kind of data set: Antimicrobial activity against Bacillus megaterium. In kind it is functional, organism-based.
In data set [11] the test system is Fusarium oxysporum. Description: Antimicrobial activity against Fusarium oxysporum. It is filed as functional, organism-based.

Chain of Tyrosine-protein kinase Lck (Homo sapiens) (P06239 2-509 limits assumed): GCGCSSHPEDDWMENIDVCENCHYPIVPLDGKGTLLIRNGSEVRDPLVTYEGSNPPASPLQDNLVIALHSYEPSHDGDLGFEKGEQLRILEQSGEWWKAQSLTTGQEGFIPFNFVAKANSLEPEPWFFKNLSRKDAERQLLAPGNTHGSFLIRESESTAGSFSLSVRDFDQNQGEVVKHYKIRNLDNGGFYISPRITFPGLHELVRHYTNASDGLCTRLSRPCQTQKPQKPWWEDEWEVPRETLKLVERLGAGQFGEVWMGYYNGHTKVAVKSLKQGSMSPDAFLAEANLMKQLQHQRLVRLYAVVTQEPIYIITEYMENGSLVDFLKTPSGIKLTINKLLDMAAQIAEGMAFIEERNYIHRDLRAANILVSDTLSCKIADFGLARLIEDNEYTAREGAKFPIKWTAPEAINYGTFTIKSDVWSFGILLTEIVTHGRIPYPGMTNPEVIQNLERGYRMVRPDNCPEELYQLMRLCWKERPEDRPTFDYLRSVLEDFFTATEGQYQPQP

Turning to `C=C1CC[C@@H]2[C@H]([C@H]3[C@H]1C[C@@H](OC(C)=O)[C@@]3(C)O)C2(C)C`, the outcome in [1], in data set [3], in [4], in data set [5], in data set [6] and in data set [7] was inactive. Besides, the outcome in data set [8], in [9], in [10] and in [11] was inactive. In addition, the Activity entry in data set [2] was “Non-toxic”.
